Data published in EP3650046A1, “MESENCHYMAL STEM CELL BASED TARGETED ACTIVE INGREDIENT DELIVERY SYSTEM” (Cellis AG, priority 2018, dated 2020).

Key:
[1] = system: Human umbilical Mesenchymal Stem Cells (MSC); test: Loading of UC-MSC in suspension with fluorescently labelled iron-binding protein complexes, flow cytometry; type: cell-based; conditions: MSC at passage five loaded with 0.6 mg/ml
Description: Umbilical Cord Mesenchymal Stem cells (UC-MSC) were cultured in DMEM 1000, 1:100 penicillin/streptomycin, 20% FBS, 8 ng/ml bFGF. Media was changed every 2 days. Experiments were carried out on UC-MSCs at passage 5.
Ferritin and haemoglobin complexes were produced as described in WO 2016/207257 (see in particular Examples 5 and 6).
Human UC-MSCs were loaded in suspension with fluorescently labelled haemoglobin-Alexa488, ferritn-Alexa488 or ferritin loaded with anticancer drug doxorubicin (ferritin-doxorubicin) as follows: UC-MSCs were detached from culture dish with 0,25% Trypsin-EDTA then cells were mixed with 0,6 mg/ml of haemoglobin-Alexa488, ferritn-Alexa488 and ferritn-doxorubicin in PBS to final cell density 10^6 per ml. Next cells were incubated for 1 hour at 37 °C, 5% CO2 and washed once in PBS afterwards. Cells were immediately used to set up co-culture with cancer cells.

[2] = system: human cancer cell lines HeLa, SCOV3 or MDA-MB-231; test: Delivery of the complex from loaded MSCs to cancer cells in co-culture, flow cytometry; type: cell-based; conditions: loaded MSCs co-cultured for 24 hours with cancer cells in ratio 2:1, example of results
Description: Cancer cell lines HeLa, SKOV3 and MDA-MB-231 were cultures in RPMI, 10%FBS, 1:100 penicillin/streptomycin, 1:100 L-glutamine. Media was changed every 2 days.
For co-culture with MSCs, cancer cells were detached from culture dish using 0,25% Trypsin-EDTA and resuspended in full RPMI media. UC-MSC cells were prepared as described in Example 1 and then mixed 2:1 (200 000:100 000) with cancer cell line and plated on 24-well plate. Co-culture media was a mixture 1:1 of media for MSC and cancer cells.
The results were analysed by flow cytometry. Before setting up the co-culture in every experiment cancer cells were stained with Cell Trace Violet (Thermo Fisher Scientific) in the 1:100 dilution. In experiments with fluorescent cargo (haemoglon-Alexa488 and ferritin-A488) UC-MSC and cancer cells were differentiated by Cell Trace Violet signal. In experiments with ferritin-doxorubicin all cells in co-culture were additionally stained with Draq7 (BioLegend) in order to track viability. Cells were differentiated by Cell Trace Violet.

Haemoglobin-Alexa488: fluorescently labelled haemoglobin-Alexa488, produced as described in WO 2016/207257
efficacy of loading of MSC [1]: ≥ 97% | mean fluorescence intensity in loaded MSC cells versus control group ([1]; fold higher than control group): 4 times | cancer cells positive for Haemoglobin-Alexa488 ([2]; Fig. 2C): Approximately 96% | cancer cells positive for Haemoglobin-Alexa488 ([2]; Fig. 3C (Ft- / Ft+ panels)): Approximately 92%
